Legend:
wheat (winter wheat) = assay: Test C preemergence; assay type: in vivo, Triticum aestivum; settings: for Wheat plant response rating (0 to 100): Preemergence, visual rating after 13 to 15 d; for Plant response rating (scale of 0 to 100 where 0 is no effect and 100 is complete control): Wheat, preemergence, 250 g ai/ha
Excerpt: (§1) Seeds of plant species selected from blackgrass (Alopecurus myosuroides), ryegrass, Italian (Italian ryegrass, Lolium multiflorum), wheat (winter wheat, Triticum aestivum), galium (catchweed bedstraw, Galium aparine), corn (Zea mays), crabgrass, large (large crabgrass, Digitaria sanguinalis), foxtail, giant, (giant foxtail, Setaria faberii), johnsongrass (Sorghum halepense), lambsquarters (Chenopodium album), morningglory (Ipomoea coccinea), nutsedge, yellow (yellow nutsedge, Cyperus esculentus), pigweed (Amaranthus retroflexus), ragweed (common ragweed, Ambrosia elatior), soybean (Glycine max), barnyardgrass (Echinochloa crus-galli), oilseed rape (Brassica napus), waterhemp (common waterhemp, Amaranthus rudis), and velvetleaf (Abutilon theophrasti) were planted into a blend of loam soil and sand and treated preemergence with test chemicals formulated in a non-phytotoxic solvent mixture which included a surfactant. At the same time, plants selected from these crop and weed species and also chickweed (common chickweed, Stellaria media), oat, wild (wild oat, Avena fatua), and kochia (Kochia scoparia), were planted in pots containing Sunshine Redi-Earth® planting medium comprising spaghnum peat moss, vermiculite, starter nutrients and dolomitic limestone and treated with postemergence applications of test chemicals formulated in the same manner. Plants ranged in height from 2 to 18 cm (1- to 4-leaf stage) for postemergence treatments. […] A dash (-) response means no test result.

windgrass = assay: Test D postemergence; assay type: in vivo, Apera spica-venti; settings: scale 0 to 100
Excerpt: (§2) Seeds of plant species selected from bluegrass (annual bluegrass, Poa annua), blackgrass (Alopecurus myosuroides), canarygrass (Phalaris minor), chickweed (common chickweed, Stellaria media), galium (catchweed bedstraw, Galium aparine), bromegrass, down (downy bromegrass, Bromus tectorum), Russian thistle (Salsola kali), field poppy (Papaver rhoeas), field violet (Viola arvensis), foxtail, green (green foxtail, Setaria viridis), deadnettle (henbit deadnettle, Lamium amplexicaule), ryegrass, Ital. (Italian ryegrass, Lolium multiflorum), kochia (Kochia scoparia), lambsquarters (Chenopodium album), oilseed rape (Brassica napus), pigweed (Amaranthus retroflexus), chamomile (scentless chamomile, Matricaria inodora), speedwell (bird's-eye speedwell, Veronica persica), barley, spring (spring barley, Hordeum vulgare), wheat, spring (spring wheat, Triticum aestivum), buckwheat, wild (wild buckwheat, Polygonum convolvulus), wild mustard (Sinapis arvensis), oat, wild (wild oat, Avena fatua), radish, wild (wild radish, Raphanus raphanistrum), […]), barley, winter (winter barley, Hordeum vulgare), and wheat, winter (winter wheat, Triticum aestivum) were planted into a silt loam soil and treated preemergence with test chemicals formulated in a non-phytotoxic solvent mixture which included a surfactant. At the same time, these species were planted in pots containing Sunshine Redi-Earth® planting medium comprising spaghnum peat moss, vermiculite, starter nutrients and dolomitic limestone and treated with postemergence applications of the test chemicals formulated in the same manner. Plants ranged in height from 2 to 18 cm (1- to 4-leaf stage). Treated plants and controls were maintained in a controlled growth environment for 14 to 21 d after which time all species were compared to controls and visually evaluated. […] A dash (-) response means no test result.

ryegrass, Italian [1] = assay: Test C preemergence; assay type: in vivo, Lolium multiflorum; settings: for Ryegrass, Italian plant response rating (0 to 100): Preemergence, visual rating after 13 to 15 d; for Plant response rating (scale of 0 to 100 where 0 is no effect and 100 is complete control): Ryegrass, Italian, preemergence
Excerpt: as §1

blackgrass = assay: Test D postemergence; assay type: in vivo, Alopecurus myosuroides; settings: scale 0 to 100
Excerpt: as §2

speedwell = assay: Test D preemergence; assay type: in vivo, Veronica persica; settings: for Plant response rating: Speedwell: scale 0 to 100
Excerpt: as §2

radish, wild = assay: Test D preemergence; assay type: in vivo, Raphanus raphanistrum; settings: scale 0 to 100
Excerpt: as §2

lambsquarters = assay: Test D postemergence; assay type: in vivo, Chenopodium album; settings: scale 0 to 100
Excerpt: as §2

ryegrass, Italian [2] = assay: Test A postemergence; assay type: in vivo, Lolium multiflorum; settings: 0 to 100 scale (0 no effect, 100 complete control), approx. 10 d
Excerpt: Seeds of plant species selected from barnyardgrass (Echinochloa crus-galli), crabgrass, large (large crabgrass, Digitaria sanguinalis), kochia (Kochia scoparia), ragweed (common ragweed, Ambrosia elatior), foxtail, giant (giant foxtail, Setaria faberii), morningglory (Ipomoea spp.), pigweed (Amaranthus retroflexus), velvetleaf (Abutilon theophrasti), ryegrass, Italian (Italian ryegrass, Lolium multiflorum), wheat (Triticum aestivum), and corn (Zea mays) were planted into a blend of loam soil and sand and treated preemergence with a directed soil spray using test chemicals formulated in a non-phytotoxic solvent mixture which included a surfactant.
At the same time, plants selected from these crop and weed species and also blackgrass (Alopecurus myosuroides), and galium (catchweed bedstraw, Galium aparine), were planted in pots containing the same blend of loam soil and sand and treated with postemergence applications of test chemicals formulated in the same manner. Plants ranged in height from 2 to 10 cm and were in the one- to two-leaf stage for the postemergence treatment. Treated plants and untreated controls were maintained in a greenhouse for approximately 10 d, after which time all treated plants were compared to untreated controls and visually evaluated for injury. Plant response ratings, summarized in Table A, are based on a 0 to 100 scale where 0 is no effect and 100 is complete control. A dash (-) response means no test result.

Row | Compound | Wheat plant response rating (0 to 100) (wheat (winter wheat); 31 g ai/ha) | Wheat plant response rating (0 to 100) (wheat (winter wheat); 62 g ai/ha) | Plant response rating (scale of 0 to 100 where 0 is no effect and 100 is complete control) (wheat (winter wheat)) | Plant response rating: Windgrass (windgrass; 31 g ai/ha) | Plant response rating: Windgrass (windgrass; 62 g ai/ha) | Plant response rating: Windgrass (windgrass; 125 g ai/ha) | Ryegrass, Italian plant response rating (0 to 100) (ryegrass, Italian [1]; 31 g ai/ha) | Ryegrass, Italian plant response rating (0 to 100) (ryegrass, Italian [1]; 62 g ai/ha) | Plant response rating (scale of 0 to 100 where 0 is no effect and 100 is complete control) (ryegrass, Italian [1]; 125 g ai/ha) | Plant response rating: Blackgrass (blackgrass; 31 g ai/ha) | Plant response rating: Blackgrass (blackgrass; 62 g ai/ha) | Plant response rating: Blackgrass (blackgrass; 125 g ai/ha) | Plant response rating: Speedwell (speedwell; 62 g ai/ha) | Plant response rating: Speedwell (speedwell; 125 g ai/ha) | Plant response rating: Radish, Wild (radish, wild; 62 g ai/ha) | Plant response rating: Radish, Wild (radish, wild; 125 g ai/ha) | Plant response rating: Lambsquarters (lambsquarters; 31 g ai/ha) | Plant response rating: Lambsquarters (lambsquarters; 62 g ai/ha) | Plant response rating (scale of 0 to 100 where 0 is no effect and 100 is complete control) (ryegrass, Italian [1]; 250 g ai/ha) | Plant response rating, Ryegrass, Italian (ryegrass, Italian [2]; 125 g ai/ha) | also measured
1 | CCc1nc(-c2ccc(C(F)(F)F)cc2)nn1Cc1ccnc(C(F)(F)F)c1 [Compound 1, 4-[[5-ethyl-3-[4-(trifluoromethyl)phenyl]-1H-1,2,4-triazol-1-yl]methyl]-2-(trifluoromethyl)pyridine] | 0 | 0 | 5 | 15 | 20 | 30 | 5 | 10 | 90 | 10 | 20 | 30 | 100 | 100 | 100 | 100 | 75 | 80 | – | – | Plant response rating: Windgrass (windgrass; 250 g ai/ha): 60; Plant response rating: Blackgrass (blackgrass; 250 g ai/ha): 45; Plant response rating: Speedwell (speedwell; 250 g ai/ha): 100; Plant response rating: Radish, Wild (radish, wild; 250 g ai/ha): 100; Plant response rating: Lambsquarters (lambsquarters; 125 g ai/ha): 85; Plant response rating: Lambsquarters (lambsquarters; 250 g ai/ha): 90
2 | CCCc1nc(-c2ccc(F)cc2)nn1Cc1ccnc(C(F)(F)F)c1 [Compound 6, 4-[[3-(4-fluorophenyl)-5-propyl-1H-1,2,4-triazol-1-yl]methyl]-2-(trifluoromethyl)pyridine] | 0 | 10 | 60 | – | – | – | 30 | 70 | 80 | – | – | – | – | – | – | – | – | – | 100 | – | –
3 | CCOc1nc(-c2ccc(F)cc2)nn1Cc1ccnc(C(F)(F)F)c1 [Compound 8, 4-[[5-ethoxy-3-(4-fluorophenyl)-1H-1,2,4-triazol-1-yl]methyl]-2-(trifluoromethyl)pyridine] | 35 | 45 | 80 | 40 | 60 | 75 | 50 | 80 | 90 | 50 | 50 | 75 | 100 | 100 | 60 | 100 | 95 | 95 | 90 | – | Plant response rating: Windgrass (windgrass; 250 g ai/ha): 85; Plant response rating: Blackgrass (blackgrass; 250 g ai/ha): 70; Plant response rating: Speedwell (speedwell; 250 g ai/ha): 100; Plant response rating: Radish, Wild (radish, wild; 250 g ai/ha): 100; Plant response rating: Lambsquarters (lambsquarters; 125 g ai/ha): 95; Plant response rating: Lambsquarters (lambsquarters; 250 g ai/ha): 90
4 | COc1nc(-c2ccc(F)cc2)nn1Cc1ccnc(C(F)(F)F)c1 [Compound 9, 4-[[3-(4-fluorophenyl)-5-methoxy-1H-1,2,4-triazol-1-yl]methyl]-2-(trifluoromethyl)pyridine] | 0 | 5 | 25 | – | – | – | 5 | 25 | 65 | – | – | – | – | – | – | – | – | – | 85 | – | –
5 | COc1nc(-c2ccc(C(F)(F)F)cc2)nn1Cc1ccnc(C(F)(F)F)c1 [Compound 25] | – | – | – | – | – | – | – | – | – | – | – | – | – | – | – | – | – | – | – | 30 | Plant response rating, Ryegrass, Italian (ryegrass, Italian [2]; 31 g ai/ha): 10
6 | CCOc1nc(-c2ccc(Cl)cc2)nn1Cc1ccnc(C(F)(F)F)c1 [Compound 26] | – | – | – | – | – | – | – | – | – | – | – | – | – | – | – | – | – | – | – | 50 | Plant response rating, Ryegrass, Italian (ryegrass, Italian [2]; 31 g ai/ha): 20
7 | COc1nc(-c2ccc(Cl)cc2)nn1Cc1ccnc(C(F)(F)F)c1 [Compound 28] | – | – | – | 25 | 45 | 45 | – | – | – | 35 | 55 | 60 | 100 | 100 | 60 | 80 | 90 | 85 | – | 20 | Plant response rating: Windgrass (windgrass; 16 g ai/ha): 25; Plant response rating: Blackgrass (blackgrass; 16 g ai/ha): 25; Plant response rating (0 to 100), Speedwell (speedwell; 16 g ai/ha, 0 is no effect, 100 is complete control): 75; Plant response rating: Lambsquarters (lambsquarters; 16 g ai/ha): 75; Plant response rating: Lambsquarters (lambsquarters; 125 g ai/ha): 95; Plant response rating, Ryegrass, Italian (ryegrass, Italian [2]; 500 g ai/ha): 50
8 | COc1nc(-c2ccccc2)nn1Cc1ccnc(C(F)(F)F)c1 [Compound 32] | 0 | 0 | 0 | – | – | – | 0 | 0 | 0 | – | – | – | – | – | – | – | – | – | 10 | 0 | Plant response rating, Ryegrass, Italian (ryegrass, Italian [2]; 500 g ai/ha): 50
9 | CCCOc1nc(-c2ccccc2)nn1Cc1ccnc(C(F)(F)F)c1 [Compound 33] | – | – | – | – | – | – | – | – | – | – | – | – | – | – | – | – | – | – | – | 10 | Plant response rating, Ryegrass, Italian (ryegrass, Italian [2]; 500 g ai/ha): 40

— patent US10681909B2, “Herbicidal triazoles” (FMC Corporation, priority 2014, dated 2020)
